Where a SMILES comes first, the peptide text is derived from it. The star is where a group is joined. Propyl(2R-PamO,3-PamO) = CCCCCCCCCCCCCCCC(=O)OC[C@H](C*)OC(=O)CCCCCCCCCCCCCCC; Palmitoyl = CCCCCCCCCCCCCCCC(=O)*; SBn = c1ccc(CS*)cc1
Conditions: phosphate buffer containing 6 M guanidinium-hydrochloride

SMILES: CCCCCCCCCCCCCCCC(=O)N[C@@H](CSC[C@@H](COC(=O)CCCCCCCCCCCCCCC)OC(=O)CCCCCCCCCCCCCCC)C(=O)N[C@@H](CO)C(=O)N[C@@H](CCCCN)C(=O)N[C@@H](CCCCN)C(=O)N[C@@H](CCCCN)C(=O)N[C@@H](CCCCN)C(=O)NCC(=O)SCc1ccccc1 [Compound 6] (Palmitoyl-C(Propyl(2R-PamO,3-PamO))SKKKKG-SBn)
- solubility: poor solubility

Reference: patent US8980311B2, “Liposome-mediated ligation” (University of Georgia Research Foundation, Inc., priority 2006, dated 2015)
